In patent publication US20190292189A1, “LIM KINASE INHIBITORS” (VIRONGY, LLC, priority 2016, published 2019):
Like-named read-outs stand apart in the source and are kept apart here.

What was measured:
[1] = test system: HIV-1(NL4-3); test: microbe, parasite or virus in culture; format: cell-based
[2] = test system: single-cycle HIV-1(Env) in CEM-SS T cells; format: cell-based; conditions: all time points
[3] = test system: HSV-1 (Herpes simplex virus); format: cell-based; conditions: Vero cells
[4] = test system: cofilin serine 3 phosphorylation in CEM-SS T cells; test: Western blot of cofilin serine 3 phosphorylation in CEM-SS T cells (time course); format: cell-based, human; conditions: 100 μM
Protocol: FIG. 10. Chemical and Biochemical characterization of R10015. a, Chemical structure of R10015 and its docking into the crystal structure of LIMK1 (PDB ID 3S95, Chain A). […] CEM-SS T cells treated with R10015 (100 μM) for a time course, and the phosphorylation of cofilin, LIMK, and PAK1/2 were measured by Western Blot. Levels of each protein or GAPDH were also measured for loading control. d, R10015 inhibits Jurkat T cell chemotaxis in responding to SDF-1. e, R10015. f, R10015 inhibits chemotactic actin activity. Resting CD4 T cells were treated with R10015, and then exposed to SDF-1 for a time course. Actin polymerization were measured by FITC-phalloidin staining. g, the relative intensity of F-actin staining was also plotted.
One million cells were lysed in NuPAGE LDS Sample Buffer (Invitrogen), separated by SDS-PAGE, and then transferred onto nitrocellulose membranes (Invitrogen). The membranes were washed in TBST for 3 min and then blocked for 30 min at room temperature with Starting Block blocking buffer (Pierce). For probing with different antibodies, blots were incubated with rabbit anti-LIMK1 antibodies (Cell Signaling), with rabbit anti-p-coflin antibodies (Cell Signaling) or with a mouse anti-PAK1/2 antibody (Cell Signaling). These antibodies were diluted in 2.5% milk/TBST and rocked overnight at 4° C. […]

[5] = target: T1, LRRK2 (G20195) (Homo sapiens, UniProt Q5S007, G2019S); test: Kinase profiling at 1 μM (Reaction Biology); format: biochemical
T1 construct: purchased Reaction Biology Corporation
T1 sequence (Q5S007 970-2527 G2019S limits assumed): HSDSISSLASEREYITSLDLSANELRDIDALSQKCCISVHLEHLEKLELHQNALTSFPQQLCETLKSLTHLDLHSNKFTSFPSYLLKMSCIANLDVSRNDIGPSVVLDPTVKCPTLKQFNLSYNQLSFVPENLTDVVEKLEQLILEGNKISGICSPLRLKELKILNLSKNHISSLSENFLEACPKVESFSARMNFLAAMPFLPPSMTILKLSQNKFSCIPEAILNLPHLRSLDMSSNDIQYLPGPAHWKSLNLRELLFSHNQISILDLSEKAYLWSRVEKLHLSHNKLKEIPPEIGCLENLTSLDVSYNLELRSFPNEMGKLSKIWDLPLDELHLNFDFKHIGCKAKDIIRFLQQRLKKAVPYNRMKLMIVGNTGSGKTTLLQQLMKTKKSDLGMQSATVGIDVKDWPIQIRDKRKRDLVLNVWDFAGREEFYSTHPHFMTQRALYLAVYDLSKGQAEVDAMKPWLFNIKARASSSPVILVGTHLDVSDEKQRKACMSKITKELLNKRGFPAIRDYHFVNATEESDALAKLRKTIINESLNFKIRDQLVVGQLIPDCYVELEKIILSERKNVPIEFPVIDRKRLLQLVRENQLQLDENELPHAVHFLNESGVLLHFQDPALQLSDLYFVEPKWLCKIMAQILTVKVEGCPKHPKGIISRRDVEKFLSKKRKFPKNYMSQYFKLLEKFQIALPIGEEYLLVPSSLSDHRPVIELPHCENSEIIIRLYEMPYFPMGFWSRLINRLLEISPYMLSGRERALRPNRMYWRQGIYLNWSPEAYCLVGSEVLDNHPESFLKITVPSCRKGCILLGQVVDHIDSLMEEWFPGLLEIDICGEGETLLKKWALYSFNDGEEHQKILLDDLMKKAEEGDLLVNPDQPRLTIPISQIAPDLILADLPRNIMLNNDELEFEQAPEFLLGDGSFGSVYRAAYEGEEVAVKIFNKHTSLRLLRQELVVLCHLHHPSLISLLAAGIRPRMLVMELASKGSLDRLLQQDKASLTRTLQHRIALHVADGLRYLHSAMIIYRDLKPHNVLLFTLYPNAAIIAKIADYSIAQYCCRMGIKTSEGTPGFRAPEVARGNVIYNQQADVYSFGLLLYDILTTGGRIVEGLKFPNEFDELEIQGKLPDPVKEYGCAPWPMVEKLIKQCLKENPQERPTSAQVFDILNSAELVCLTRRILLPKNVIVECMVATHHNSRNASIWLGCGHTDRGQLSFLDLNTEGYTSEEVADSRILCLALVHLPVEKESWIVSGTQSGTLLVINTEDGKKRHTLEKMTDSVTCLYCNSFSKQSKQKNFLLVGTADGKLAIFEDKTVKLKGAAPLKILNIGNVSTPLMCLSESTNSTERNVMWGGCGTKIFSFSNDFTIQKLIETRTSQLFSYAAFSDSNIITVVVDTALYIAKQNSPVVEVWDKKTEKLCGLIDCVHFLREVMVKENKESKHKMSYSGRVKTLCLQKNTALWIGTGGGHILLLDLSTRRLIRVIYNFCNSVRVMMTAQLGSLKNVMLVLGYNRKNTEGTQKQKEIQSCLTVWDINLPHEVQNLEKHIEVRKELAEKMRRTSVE
Protocol: Profiling was carried out at Reaction Biology Corporation following a protocol described at its website: http://www.reactionbiology.com/webapps/site/. The % data were the average from two determinations. ATP concentration used: 10 μM; Staurosporine was used as the positive control.
Biochemical assays for all Limk inhibitors and kinase profiling were carried out in Reaction Biology Corporation and followed the protocols described on its website. […] Compounds were tested at 1 μM with duplicate experiments in profiling assays. […] Reactions were carried out at 10 μM ATP, 1 μM substrate cofilin, and 50 nM Limk1 (final concentrations).

[6] = target: Limk1 (Homo sapiens, UniProt P53667); test: Limk1 biochemical assay (Reaction Biology, 10-dose IC50); parameters: His; purchased Reaction Biology Corporation; host or cells: insect cells
Sequence of Limk1 (P53667 285-638): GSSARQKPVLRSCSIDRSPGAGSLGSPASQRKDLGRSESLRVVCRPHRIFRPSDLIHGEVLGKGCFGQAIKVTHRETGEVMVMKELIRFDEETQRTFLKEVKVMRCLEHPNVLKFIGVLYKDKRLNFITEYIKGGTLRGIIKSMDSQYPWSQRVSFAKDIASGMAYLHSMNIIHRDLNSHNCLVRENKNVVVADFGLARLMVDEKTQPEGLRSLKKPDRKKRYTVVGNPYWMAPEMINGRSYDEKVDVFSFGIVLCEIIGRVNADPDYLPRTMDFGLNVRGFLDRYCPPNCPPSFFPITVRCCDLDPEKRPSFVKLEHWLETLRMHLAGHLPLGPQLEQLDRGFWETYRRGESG

[7] = target: P450 2C9 (Homo sapiens, UniProt P11712); test: P450 inhibition at 10 μM; format: in vitro ADME
Sequence of P450 2C9 (P11712 whole entry): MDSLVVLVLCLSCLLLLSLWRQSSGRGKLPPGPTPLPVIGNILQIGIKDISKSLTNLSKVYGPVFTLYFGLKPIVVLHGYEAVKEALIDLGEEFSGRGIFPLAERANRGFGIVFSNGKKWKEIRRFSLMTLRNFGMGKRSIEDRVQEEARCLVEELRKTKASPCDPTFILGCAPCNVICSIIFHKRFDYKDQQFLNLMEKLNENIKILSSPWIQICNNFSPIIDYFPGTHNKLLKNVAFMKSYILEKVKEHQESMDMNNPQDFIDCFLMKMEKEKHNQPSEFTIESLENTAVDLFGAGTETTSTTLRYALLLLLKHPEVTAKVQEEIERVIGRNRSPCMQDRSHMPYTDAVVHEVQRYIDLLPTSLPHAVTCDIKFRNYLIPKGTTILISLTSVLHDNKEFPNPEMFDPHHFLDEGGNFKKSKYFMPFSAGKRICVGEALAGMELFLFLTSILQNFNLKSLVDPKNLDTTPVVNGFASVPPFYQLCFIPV

[8] = Microsomal stability, human liver microsomes; format: in vitro ADME
[9] = test system: PC-3 cells; test: In vitro invasion assay in PC-3 cells; format: cell-based; conditions: Homo sapiens, 48 hours, compared to the control
Protocol: Transwell chambers coated with GFR Matrigel (BD Biosciences) were used for measurement of cell invasion. The matrigel was solidified at 37° C. in a humidified incubator the day before the assay. PC3 cells (1×10^3 cells per well) were grown in serum-free RPMI1640 media in the upper side of the insert. The lower well was filled with RPMI 1640 supplemented with 10% FBS with a Limk inhibitor (1 μM). PC3 cells were incubated at 37° C. in a humidified atmosphere containing 5% CO2 for 48 h. Then transwell membrane was rinsed three times with PBS, and the cells were fixed in 2.5% EM grade glutaraldehyde for 15 min at room temperature (RT) with no shaking. After removing glutaraldehyde by aspirating, the cells were permeabilized with 0.5% Triton X-100 in PBS for 3 min at RT, and they were rinsed three times with PBS. Then, the cells were stained by Gill's hematoxylin No. 1 for 15 min at RT, and they were washed by distilled water for three times. To remove any residual stain, the cells were washed by acid alcohol for 3 minutes and then rinsed by distilled water twice. The cells were exposed with 0.04% NH4OH until a blue color is observed on the membrane and then rinsed by distilled water twice. The membranes were dried overnight, and the stained cells were visualized under Leica DMI3000B microscope.

[10] = Microsomal stability, rat liver microsomes; format: in vitro ADME; conditions: rat liver microsomes
[11] = test system: cofilin phosphorylation in A7r5 cells; test: In-cell Western assay of cofilin phosphorylation in A7r5 cells; format: cell-based; conditions: A7R5, A7r5 cells; read-out: Cofilin Phosphorylation In A7r5 Cells (IC50)
Protocol: A7r5 (15,000 cells/well) were plated in a clear-bottomed Packard View black 96-well plate in 100 μl of 10% FBS DMEM:F12 medium and were allowed to attach overnight. The next day, the cells were serum starved in 1% FBS DMEM medium for 2 hr and then treated with the compounds for 1 hr. […] Next day, they were washed twice with PBS-0.1% Tween 20 (PBST) washing solution for 5 min each at room temperature on the orbital shaker, followed by one wash with Licor Blocking Buffer containing 0.05% Tween-20 for 5 min on the shaker at RT. The cells were then incubated with secondary antibody goat anti-rabbit IR800 (1:500 dilution) for 1 hr at RT in the dark (covered the plate with foil) in Licor blocking buffer-containing Tween-20. Following this, cells were washed twice with PBST for 5 min each at room temperature and then once with Licor blocking buffer-containing 0.05% Tween-20. The wells were then incubated with ToPro 3 stain (nucleic acid staining), diluted 1:4000 in Licor blocking buffer or Licor blocking buffer with 0.05% Tween-20 for 30 min at room temperature in the dark. Finally the plates were washed twice with PBS and analyzed using the Odyssey LICOR Infrared Scanner.

Structure (SMILES)	IC50 ([1]; Human immunodeficiency virus 1, NL43, T-cell, read-out: half maximal inhibition concentration (IC50) for inhibiting HIV infection) [µM]	X4 HIV infection (screen) ([1]; […], dosages with no detectable cytotoxicity)	viral DNA synthesis [2]	HSV-1 infection [3]	cofilin serine 3 phosphorylation [4]	activity at 1 µM ([5]; ATP 10 μM) [%]	IC50 ([6]; Table 8, read-out: LIMK1 IC50) [µM]	IC50 ([6]; read-out: Limk1 IC50) [µM]	X4 HIV infection (screen) [1]	P450 % inh. at 10 μM 2C9 [7] [%]	inhibition at 1 µM ([5]; kinase panel) [%]	Microsomal Stability t1/2 (min) Human [8] [min]	inhibition at 1 µM [9] [%]	Microsomal Stability t1/2 (min) Rat [10] [min]	IC50 [11] [µM]
COC(=O)c1ccc2[nH]c(C3CCN(c4ncnc5[nH]cc(Cl)c45)CC3)nc2c1 [Compound R10015, Methyl 2-(1-(5-chloro-7H-pyrrolo[2,3-d]pyrimidin-4-yl)piperidin-4-yl)-1Hbenzo[d]imidazole-5-carboxylate]	14.9	blocked	inhibited	inhibited	drastic inhibition	6.7	0.038 ± 0.005	~0.038							
Cc1c[nH]c2ncnc(-c3ccc(NC(=O)N(CCO)c4ccccc4)cc3)c12 [Compound 18b, 1-(2-Hydroxyethyl)-3-(4-(5-methyl-7H-pyrrolo[2,3-d]pyrimidin-4-yl)phenyl)-1-phenylurea]									blocked	14	> 50	87	76	30	0.47
